Reference: US10774053B2, “HIV protease inhibitors” (Gilead Sciences, Inc., priority 2017, dated 2020)

tested on: HIV-1 (IIIB) in MT-4 cells; experiment: microbe, parasite or virus in culture; assay type: cell-based; settings: Human immunodeficiency virus 1, IIIB, MT4, MT-4 cells, HIV-1; read-out: MT4 EC50
Procedure: Compounds were serially diluted (1:3) in DMSO on 384-well polypropylene plates and further diluted 200-fold into complete RPMI media (10% FBS, 1% P/S) using the Biotek Micro Flow and Agilent ECHO acoustic dispenser. Each plate contained up to 8 test compounds, with negative (No Drug Control) and 5 uM AZT positive controls. MT-4 cells were pre-infected with 10 uL of either RPMI (mock-infected) or a fresh 1:250 dilution of an HIV-1 (IIIB) concentrated virus stock. Infected and uninfected MT-4 cells were further diluted in complete RPMI media and added to each plate using a Micro Flow dispenser. After 5 days incubation in a humidified and temperature controlled incubator (37° C.), Cell Titer Glo (Promega) was added to the assay plates to quantify the amount of luciferase.

First: CC(C)(C)C[C@]1(c2ccc(-c3cnn(C(F)F)c3)cc2)NC(=N)N([C@H](COC(=O)N2CC(F)(F)C2)c2ccc(Cl)c(-c3ncn[nH]3)c2)C1=O [Compound 67]
Second: CC(C)(C)C[C@]1(c2ccc(-c3cnn(C(F)F)c3)cc2)NC(=N)N([C@H](COC(=O)N2CC(C)(F)C2)c2ccc(Cl)c(-c3ncn[nH]3)c2)C1=O [Compound 76]
The EC50 of the first is 1.7-fold lower: 0.0208 µM for the first, 0.0348 µM for the second. The first is the more potent here.

Compared with `CC(C)(C)C[C@]1(c2ccc(-c3cnn(C(F)F)c3)cc2)NC(=N)N([C@H](COC(=O)NC(C)(C)C)c2ccc(Cl)c(-c3ncn[nH]3)c2)C1=O` [Compound 68], `CC(C)(C)C[C@]1(c2ccc(-c3cnn(C(F)F)c3)cc2)NC(=N)N([C@H](COC(=O)NC(C)(CO)CO)c2ccc(Cl)c(-c3ncn[nH]3)c2)C1=O` [Compound 102] is 9.1-fold higher in EC50: 0.0216 µM for the first, 0.196 µM for the second.

`CC(C)(C)C[C@]1(c2ccc(-c3cnn(C(F)F)c3)cc2)NC(=N)N([C@H](COC(=O)NC(C)(C)C(F)F)c2ccc(Cl)c(-c3ncn(C(F)F)n3)c2)C1=O` [Compound 69] and `CC(C)(C)C[C@]1(c2ccc(-c3cnn(C(F)F)c3)cc2)NC(=N)N([C@H](COC(=O)NC2(C)CC2)c2ccc(Cl)c(-c3ncn(C(F)F)n3)c2)C1=O` [Compound 70] are within 1.5-fold of each other in EC50: 0.0326 µM for the first, 0.0294 µM for the second.

Compared with `CC(C)(C)C[C@]1(c2ccc(-c3cnn(C(F)F)c3)cc2)NC(=N)N([C@H](COC(=O)NC2(C(F)(F)F)CC2)c2ccc(Cl)c(C#N)c2)C1=O` [Compound 71], `CC(C)(C)C[C@]1(c2ccc(-c3cnn(C(F)F)c3)cc2)NC(=N)N([C@H](COC(=O)NC2(C(F)F)CC2)c2ccc(Cl)c(-c3ncn[nH]3)c2)C1=O` [Compound 93] is 3.1-fold lower in EC50: 0.324 µM for the first, 0.105 µM for the second.

Compared with `CC(C)(C)C[C@]1(c2ccc(-c3cnn(C(F)F)c3)cc2)NC(=N)N([C@H](COC(=O)N2CC(C)(C)C2)c2ccc(Cl)c(-c3ncn[nH]3)c2)C1=O` [Compound 75], `CC(C)(C)C[C@]1(c2ccc(-c3cnn(C(F)F)c3)cc2)NC(=N)N([C@H](COC(=O)N2CC(C)(C#N)C2)c2ccc(Cl)c(-c3ncn[nH]3)c2)C1=O` [Compound 85] is 3.7-fold higher in EC50: 0.0305 µM for the first, 0.112 µM for the second. The first is the more potent here.

`CC(C)(C)C[C@]1(c2ccc(-c3cnn(C4CC4)c3)cc2)NC(=N)N([C@H](COC(=O)N2CC(F)(F)C2)c2ccc(Cl)c(-c3ncn[nH]3)c2)C1=O` [Compound 77] and `CC(C)(C)C[C@]1(c2ccc(-c3cnn(C(F)F)c3)cc2)NC(=N)N([C@H](COC(=O)N2CC3(CC3)C2)c2ccc(Cl)c(-c3ncn[nH]3)c2)C1=O` [Compound 87] are within 1.5-fold of each other in EC50: 0.0389 µM for the first, 0.0385 µM for the second.

Going from `CC(C)(C)C[C@]1(c2ccc(-c3cnn(C4CC4)c3)cc2)NC(=N)N([C@H](COC(=O)NC(C)(C)C(F)F)c2ccc(Cl)c(-c3ncn[nH]3)c2)C1=O` [Compound 79] to `CC(C)(C)C[C@]1(c2ccc(-c3cnn(C4COC4)c3)cc2)NC(=N)N([C@H](COC(=O)NC(C)(C)C)c2ccc(Cl)c(-c3ncn[nH]3)c2)C1=O` [Compound 106], the EC50 rises from 0.0645 µM to 0.101 µM (1.6-fold). The first is the more potent here.

`CC(C)(C)C[C@]1(c2ccc(-c3cnn(C(F)F)c3)cc2)NC(=N)N([C@H](COC(=O)N(CC(F)F)C2CC2)c2ccc(Cl)c(-c3ncn[nH]3)c2)C1=O` [Compound 80] and `CC(C)(C)C[C@]1(c2ccc(-c3cnn(C(F)F)c3)cc2)NC(=N)N([C@H](COC(=O)N(CC(F)(F)F)C2CC2)c2ccc(Cl)c(-c3ncn[nH]3)c2)C1=O` [Compound 95] are within 1.5-fold of each other in EC50: 0.0288 µM for the first, 0.0304 µM for the second.

`CN(C)C(=O)OC[C@H](c1ccc(Cl)c(-c2ncn[nH]2)c1)N1C(=N)N[C@](CC(C)(C)C)(c2ccc(-c3cnn(C(F)F)c3)cc2)C1=O` [Compound 81] and `CC(C)(C)C[C@]1(c2ccc(-c3cnn(C(F)F)c3)cc2)NC(=N)N([C@H](COC(=O)N2CCC2)c2ccc(Cl)c(-c3ncn[nH]3)c2)C1=O` [Compound 86] are within 1.5-fold of each other in EC50: 0.0316 µM for the first, 0.0354 µM for the second.

Going from `CC(C)(C)C[C@]1(c2ccc(-c3cnn(C(F)F)c3)cc2)NC(=N)N([C@H](COC(=O)N2CC3(COC3)C2)c2ccc(Cl)c(-c3ncn[nH]3)c2)C1=O` [Compound 82] to `CC(C)(C)C[C@]1(c2ccc(-c3cnn(C(F)F)c3)cc2)NC(=N)N([C@H](COC(=O)N2CC3(CCO3)C2)c2ccc(Cl)c(-c3ncn[nH]3)c2)C1=O` [Compound 92], the EC50 falls from 0.18 µM to 0.113 µM (1.6-fold). The second is the more potent here.

Going from `CC(C)(C)C[C@]1(c2ccc(-c3cnn(C(F)F)c3)cc2)NC(=N)N([C@H](COC(=O)N2CC(C(F)(F)F)C2)c2ccc(Cl)c(-c3ncn[nH]3)c2)C1=O` [Compound 83] to `CC(C)(C)C[C@]1(c2ccc(-c3cnn(C(F)F)c3)cc2)NC(=N)N([C@H](COC(=O)N2CC(C(F)F)C2)c2ccc(Cl)c(-c3ncn[nH]3)c2)C1=O` [Compound 99], the EC50 rises from 0.0334 µM to 0.0657 µM (2-fold). The first is the more potent here.

Compared with `CC(C)(C)C[C@]1(c2ccc(-c3cnn(C(F)F)c3)cc2)NC(=N)N([C@H](COC(=O)N2CC(S(C)(=O)=O)C2)c2ccc(Cl)c(-c3ncn[nH]3)c2)C1=O` [Compound 84], `CC1CCN1C(=O)OC[C@H](c1ccc(Cl)c(-c2ncn[nH]2)c1)N1C(=N)N[C@](CC(C)(C)C)(c2ccc(-c3cnn(C(F)F)c3)cc2)C1=O` (stereo partly drawn) [Compound 88] is 43-fold lower in EC50: 1.05 µM for the first, 0.0243 µM for the second.

Going from `CC(C)(C)C[C@]1(c2ccc(-c3cnn(C(F)F)c3)cc2)NC(=N)N([C@H](COC(=O)NC2COC2)c2ccc(Cl)c(-c3ncn[nH]3)c2)C1=O` [Compound 94] to `CC(C)(C)C[C@]1(c2ccc(-c3cnn(C(F)F)c3)cc2)NC(=N)N([C@H](COC(=O)Nc2ccccc2)c2ccc(Cl)c(-c3ncn[nH]3)c2)C1=O` [Compound 107], the EC50 falls from 0.341 µM to 0.0491 µM (6.9-fold). The second is the more potent here.

First: [2H]C([2H])([2H])n1cnc(-c2cc([C@@H](COC(=O)NC(C)(C)C(F)F)N3C(=N)N[C@](C[C@@]4(C)CC4(F)F)(c4ccc(-c5cnn(C(F)F)c5)cc4)C3=O)ccc2Cl)n1 [Compound 96]
Second: [2H]C([2H])([2H])n1cnc(-c2cc([C@@H](COC(=O)NC(C)(C)C(F)F)N3C(=N)N[C@](CC4(C)CC4)(c4ccc(-c5cnn(C(F)F)c5)cc4)C3=O)ccc2Cl)n1 [Compound 98]
The EC50 of the first is 1.6-fold higher: 0.0837 µM for the first, 0.052 µM for the second.

Going from `CC(C)(F)C[C@]1(c2ccc(-c3cnn(C(F)F)c3)cc2)NC(=N)N([C@H](COC(=O)N2CC(F)(F)C2)c2ccc(Cl)c(-c3ncn[nH]3)c2)C1=O` [Compound 101] to `CC(C)(C)C[C@]1(c2ccc(-c3cnn(C(F)F)c3)cc2F)NC(=N)N([C@H](COC(=O)N2CC(F)(F)C2)c2ccc(Cl)c(-c3ncn[nH]3)c2)C1=O` [Compound 111], the EC50 falls from 0.0659 µM to 0.0404 µM (1.6-fold).

`CC(C)(C)C[C@]1(c2ccc(-c3ncccn3)cc2)NC(=N)N([C@H](COC(=O)N2CC(F)(F)C2)c2ccc(Cl)c(-c3ncn[nH]3)c2)C1=O` [Compound 104] and `CC(C)(C)C[C@]1(c2ccc(-c3ncccn3)cc2F)NC(=N)N([C@H](COC(=O)NC2(C(F)(F)F)CC2)c2ccc(Cl)c(-c3ncn[nH]3)c2)C1=O` [Compound 112] are within 1.5-fold of each other in EC50: 0.0335 µM for the first, 0.0404 µM for the second.

Compared with `CC(C)(C)C[C@]1(c2ccc(-c3cnn(C(F)F)c3)cc2)NC(=N)N([C@H](COC(=O)Nc2ccccn2)c2ccc(Cl)c(-c3ncn[nH]3)c2)C1=O` [Compound 108], `CC(C)(C)C[C@]1(c2ccc(-c3cnn(C(F)F)c3)cc2F)NC(=N)N([C@H](COC(=O)NC(C)(C)C)c2ccc(Cl)c(-c3ncn[nH]3)c2)C1=O` [Compound 114] is 2.1-fold lower in EC50: 0.0858 µM for the first, 0.0406 µM for the second. The second is the more potent here.

First: CC(C)(C)C[C@]1(c2ccc(-c3cnn(C(F)F)c3)cc2)NC(=N)N([C@H](COC(=O)NC(C)(C)C(F)(F)F)c2ccc(Cl)c(-c3ncnn3C(F)F)c2)C1=O [Compound 115]
Second: CC(C)(C)C[C@]1(c2ccc(-c3ccccn3)cc2F)NC(=N)N([C@H](COC(=O)NC2(C(F)(F)F)CC2)c2ccc(Cl)c(-c3ncn[nH]3)c2)C1=O [Compound 116]
The EC50 of the first is 3.6-fold lower: 0.0117 µM for the first, 0.0426 µM for the second. The first is the more potent here.
